Drawing on PubChem BioAssay (NCI), this text covers GI50 and TGI for 10 molecules.

Holding throughout (test): growth of human tumour cells (NCI), 48 h
In experiment [1] the test system is ACHN renal.
Experiment [2] relates to SF-539 CNS.
The test system of experiment [3] is MDA-MB-435.
Experiment [4] relates to SW-620 colon.
In experiment [5] the test system is K-562 leukemia.
For experiment [6], the system named is 786-0 renal.
Experiment [7] relates to NCI-H460 lung.
Experiment [8] concerns A549 NSCLC.
Experiment [9] has as its system CCRF-CEM leukemia.
Experiment [10] has as its system MDA-MB-231 breast.

“And” between values parts separate entries of the source, which are not always exact repeats. Equal entries are not always repeated.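 Briefly, cells in 96-well plates were exposed to five compound concentrations for 48 h, and endpoints were estimated by linear interpolation. The concentration for 50% growth inhibition is given as GI50. TGI denotes the concentration required for complete inhibition of growth.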 *1 amine or outer side, *2 acyl side, *3 side chain or, on linkers, in order; H or OH if unused. Where a SMILES comes first, the peptide text is derived from it. Bridges are numbered along the chain shown (N, C = ends). [ ]: non-standard residue; d: D form. ξ: configuration not given here. X4 = CCC(C)C(N[*:1])C(O)CC(=O)O[C@H](C(=O)C(C)C(=O)[*:2])C(C)C; NMeY = CN[C@@H](Cc1ccc(O)cc1)C(=O)O; X9 = O=C([C@@H]1CC(O)CN1[*:1])[*:2]; ξNMeL = CNC(CC(C)C)C(=O)O; ξT = CC(O)C(N)C(=O)O

Regarding `COc1ccc(-c2ccc(/C=N/n3cn[nH]c3=S)o2)c([N+](=O)[O-])c1`, the GI50 was 50.7 µM in experiment [1]; 40.9 µM in experiment [2]; 19.8 µM in experiment [3]; 29.8 µM in experiment [4]; 16.9 µM in experiment [5]; 66.2 µM in [6]. Also, the results for the GI50 in experiment [7], in experiment [8] and in experiment [9] were 36.1 µM, 36.2 µM and 26.1 µM, respectively. For the same molecule, the TGI in experiment [1] was over 100 µM; in experiment [2] it was over 100 µM; in [3] it was 44.8 µM; in experiment [4], over 100 µM; in experiment [5] it was 36.9 µM; in experiment [6], over 100 µM. In addition, the TGI was over 100 µM in experiment [7], over 100 µM in experiment [8] and 75.3 µM in [9].

Regarding `Cc1cccc(C(C)O)n1` (stereo not drawn), the TGI in experiment [1], in experiment [2], in [4], in experiment [5], in [6] and in experiment [7] was over 100 µM throughout. The TGI in experiment [8], in [10] and in [9] was over 100 µM in each case.

`Nc1cc(N)c2nc(-c3ccccc3)c(Nc3ccc(F)cc3)nc2c1`: the GI50 in experiment [1] is 10.3 µM; in experiment [2], 11 µM; in experiment [3], 7.34 µM; in experiment [4] it was 13.6 µM; in experiment [5] it was 4.97 µM; in experiment [6], 17.4 µM. The GI50 in experiment [7] was 26.4 µM; in [8], 17.2 µM; in experiment [10], 11 µM. The TGI in experiment [1] is 22.5 µM; in experiment [2], 24.6 µM; in [3] it was 20.8 µM; in experiment [4], 39.2 µM; in experiment [5] it was over 100 µM; in experiment [6], 54.3 µM. For the same molecule, the TGI in experiment [7] was over 100 µM; in experiment [8] it was 44.6 µM; in experiment [10] it was 30.5 µM.

Turning to `COc1ncnc2c(NC3OC(CO)C(O)C3O)ncnc12` (stereo not drawn), the TGI in experiment [1] was over 53.7 µM; in experiment [2], 1.33 µM; in experiment [3], over 100 µM; in [4], 13.2 µM; in experiment [6] it was 14 µM; in experiment [7], over 83.5 µM. The TGI in experiment [10] was 1.54 µM; in experiment [9], 1.57 µM.

On to `CNC(=O)c1cc(Oc2ccc3nc(NC(=O)Nc4ccc(Cl)c(Cl)c4)sc3c2)ccn1`, for which the GI50 in experiment [1] is 2.1 µM; in [2] it was 2.17 µM; in experiment [3], 2.02 µM; in experiment [4] it was 8.11 µM; in experiment [5], over 100 µM; in experiment [6] it was 2.26 µM. The results for the GI50 in experiment [7], in [10] and in experiment [9] were 2.43 µM, 2.15 µM and over 100 µM, respectively. Further, the TGI in [1] is 5.56 µM; in experiment [2], 4.69 µM; in experiment [3], 4.62 µM; in [4], over 100 µM; in experiment [5], over 100 µM; in [6] it was 5.11 µM. Further, the TGI in experiment [7] is 5.32 µM; in [10], 6.43 µM; in experiment [9] it was over 100 µM.

On to `CCC(C)C1NC(=O)C(NC(=O)C(CC(C)C)N(C)C(=O)[C@@H]2CC(O)CN2)C(C)OC(=O)[C@H](Cc2ccc(OC)cc2)N(C)C(=O)[C@@H]2CCCN2C(=O)[C@H](CC(C)C)NC(=O)C(C)C(=O)[C@H](C(C)C)OC(=O)CC1O` (stereo partly drawn) (H-[X9][ξNMeL][ξT][X4]LP[NMeY](Me); ester 3-C), for which the GI50 is 0.0561 µM in experiment [1], 0.0162 µM in experiment [6] and 0.0369 µM in experiment [10]. Besides, the TGI in experiment [1] is 1.01 µM and 1.9 µM; in experiment [2] it was 0.0152 µM and 0.0395 µM; in experiment [3] it was 0.0555 µM and 0.131 µM; in experiment [4] it was 0.287 µM and 0.294 µM; in [5], 0.114 µM and 0.131 µM; in [6], 0.149 µM and 1.25 µM. Besides, the TGI in [7] was 0.134 µM and 1.1 µM; in experiment [8], 2.02 µM and 1 µM.

Turning to `C=CCOc1cc2c(cc1C(C)c1ccc(OC)cc1)OCO2` (stereo not drawn), the TGI was over 100 µM in experiment [1]; 1.34 µM in [2]; 1.91 µM in experiment [3]; over 100 µM in experiment [4]; over 100 µM in experiment [5]; over 100 µM in experiment [6]. Further, the TGI is over 100 µM in experiment [8], over 100 µM in experiment [10] and over 31.7 µM in experiment [9].

Regarding `OCCN(CO)CN(CN(CO)CCO)c1nc(N(CN(CO)CCO)CN(CO)CCO)nc(N(CN(CO)CCO)CN(CO)CCO)n1`, the GI50 in [1] is 1.73 ng/mL; in experiment [2] it was 1.42 ng/mL; in [4] it was 0.55 ng/mL; in experiment [5] it was 0.559 ng/mL; in [6], 1.49 ng/mL; in experiment [7], 1.17 ng/mL. For the same molecule, the GI50 in experiment [8] was 1.81 ng/mL; in [10], 1.01 ng/mL; in [9], 0.55 ng/mL. In addition, the TGI in experiment [1] was 6.27 ng/mL; in [2] it was 3.91 ng/mL; in [4], 6.27 ng/mL; in [5] it was 10.6 ng/mL; in experiment [6], 4.6 ng/mL; in [7] it was 2.53 ng/mL. Further, the TGI came out at 131 ng/mL in [8], 3.23 ng/mL in [10] and 2.52 ng/mL in experiment [9].

For the molecule `COc1ccc(Cl)cc1N1C(=O)C(Cl)=C(Nc2cccc(O)c2)C1=O`, the GI50 in experiment [1] is 16.9 µM; in [3], 24.6 µM; in [4], 27.4 µM; in experiment [5], 18.5 µM; in experiment [6], 21.1 µM; in [7] it was 17.9 µM. The figures for the GI50 in experiment [8] and in experiment [9] were 20.1 µM and 14.5 µM, respectively. For the same molecule, the TGI was 48.6 µM in experiment [1]; 62.8 µM in experiment [3]; 63 µM in [4]; 46.2 µM in experiment [5]; 60.2 µM in experiment [6]; 48.6 µM in experiment [7]. The TGI in experiment [8] is 59.2 µM; in experiment [9], 43.8 µM.

On to `COc1ccc(/C=C/C(=O)c2ccc(Nc3ncnc4ccccc34)cc2)cc1OC`, for which the GI50 in [1] is 13.6 µM; in experiment [2], 7.73 µM; in experiment [3] it was 2.93 µM; in experiment [4], 3.51 µM; in experiment [6], 7.96 µM; in experiment [7], 13 µM. The GI50 in experiment [8] is 3.66 µM; in experiment [10], 19.8 µM; in experiment [9], 2.55 µM. The TGI in [1] was over 100 µM; in experiment [2] it was 48.8 µM; in experiment [3] it was over 100 µM; in [4], over 100 µM; in experiment [6] it was over 100 µM; in [7] it was over 100 µM. Also, the TGI in experiment [8] is over 100 µM; in [10] it was over 100 µM; in [9], 7.01 µM.
